Experimental data reported in paper PMC11628281, “A sulfonimide derivative of bezafibrate as a dual inhibitor of cyclooxygenase-2 and PPARα” (Frontiers in Pharmacology, 2024).

Biological target: T1, cyclooxygenase (COX)-2 (Homo sapiens, UniProt P35354)
T1 construct: gene PTGS2
T1 sequence (P35354 18-604): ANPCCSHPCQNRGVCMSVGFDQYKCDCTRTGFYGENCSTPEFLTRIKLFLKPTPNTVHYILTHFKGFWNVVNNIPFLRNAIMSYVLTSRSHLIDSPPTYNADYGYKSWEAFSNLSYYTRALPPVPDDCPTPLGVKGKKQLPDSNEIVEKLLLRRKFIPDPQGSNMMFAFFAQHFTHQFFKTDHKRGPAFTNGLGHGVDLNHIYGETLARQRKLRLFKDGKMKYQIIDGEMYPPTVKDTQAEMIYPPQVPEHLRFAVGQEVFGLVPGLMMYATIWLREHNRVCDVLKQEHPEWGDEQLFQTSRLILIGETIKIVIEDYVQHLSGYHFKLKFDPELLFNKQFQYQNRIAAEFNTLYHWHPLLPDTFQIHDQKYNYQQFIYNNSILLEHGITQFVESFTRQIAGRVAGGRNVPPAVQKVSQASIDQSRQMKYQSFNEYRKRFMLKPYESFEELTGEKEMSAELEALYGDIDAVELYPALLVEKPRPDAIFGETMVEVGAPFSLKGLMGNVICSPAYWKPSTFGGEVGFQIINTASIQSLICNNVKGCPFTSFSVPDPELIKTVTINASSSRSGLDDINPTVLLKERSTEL
Experiment: LPS-stimulated human whole blood PGE2 (RIA); also HCA7 cells (COX-2 only), IC50 […], with washout

## CC(C)(Oc1ccc(CCNC(=O)c2ccc(Cl)cc2)cc1)C(=O)NS(=O)(=O)c1ccccc1 [compound 6, AA520]
  IC50: 100 nM
